Reference: paper PMC7413516, “Antidepressant-like activity and safety profile evaluation of 1H-imidazo[2,1-f]purine-2,4(3H,8H)-dione derivatives as 5-HT1A receptor partial agonists” (PLoS ONE, 2020)
Several values for one entry are separate records, joined by “and”; a condition that tells them apart may be missing. Equal entries are not always repeated.

What was measured:
[1] = biological target: T1, human serotonin 5-HT1A receptor (Homo sapiens, UniProt P08908); experiment: ERK1/2 phosphorylation (SureFire Alpha LISA, CHO-K1 5HT1AR cells)
T1 sequence (P08908 1-422): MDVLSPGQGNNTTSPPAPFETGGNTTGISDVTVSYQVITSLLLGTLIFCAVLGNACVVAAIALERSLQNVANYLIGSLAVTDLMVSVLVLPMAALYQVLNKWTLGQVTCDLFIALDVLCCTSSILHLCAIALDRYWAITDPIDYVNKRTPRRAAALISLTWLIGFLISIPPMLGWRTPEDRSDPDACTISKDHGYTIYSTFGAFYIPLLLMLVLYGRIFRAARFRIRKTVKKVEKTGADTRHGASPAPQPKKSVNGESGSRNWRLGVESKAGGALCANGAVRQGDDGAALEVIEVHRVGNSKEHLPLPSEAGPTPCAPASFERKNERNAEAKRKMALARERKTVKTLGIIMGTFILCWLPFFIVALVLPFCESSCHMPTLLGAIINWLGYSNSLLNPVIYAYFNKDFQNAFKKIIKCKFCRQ
Experimental: CHO-K1 cell line transfected with 5-HT1A receptor, were commercially obtained from Perkin Elmer (Cat. No. ES-310-C, Lot Number M2W-C1). Cells were cultured according to manufacturer’s instruction. […] Geneticin-resistant clones were obtained by limit dilution and compared for receptor expression levels using a radioligand binding assay. The clone with the highest receptor expression level was selected for characterization in binding and functional assays. […] Corresponding Protein Sequence: Identical to GenBank NP_000515.2. Receptor expression level (BMAX): Estimated to be 3.7 ± 2.3 pmol/mg protein, using [3H] […] This cell line tested negative for mycoplasma.

PDE4B = system: PDE4B; parameters: method as in PMID 27353547; conditions: in vitro, bioluminescent detection system; ref [8]; cited from earlier work
[2] = system: adrenergic α1 receptors (α1R); experiment: Pressor response to methoxamine in anesthetized normotensive rats (adrenolytic activity); assay type: in vivo, Wistar rats; conditions: 10 mg/kg, 30 min prior to methoxamine 150 μg/kg
Experimental: In a separate series of experiments on anesthetized normotensive rats, the effect of studied compounds on the pressor response to methoxamine (Sigma Aldrich) (150 μg/kg) was investigated. Pressor responses to methoxamine injected intravenously were measured before and 30 min after the administration of the tested compound. The amplitudes of the pressure values were measured in 4 independent experiments.

normotensive rats = experiment: Blood pressure measurement in normotensive anesthetized rats; assay type: in vivo, Wistar rats; conditions: for DBP Mean / SBP Mean / DBP (individual animals) / SBP (individual animals): 10 mg/kg i.p.
Experimental: Male Wistar normotensive rats were anesthetized with thiopental (50–75 mg/kg, i.p.). The right carotid artery was cannulated with a polyethylene tube filled with heparin in saline to facilitate pressure measurement using the Datamax apparatus (Columbus Instruments, Columbus, Ohio, USA). The studied compounds were administered after a 15-min stabilization period.

[3] = biological target: serotonergic 5-HT7 receptor (5-HT7R); parameters: method as in PMID 27353547; conditions: ref [8]; cited from earlier work
mice = experiment: Locomotor activity (Opto M3 activity monitor) in mice; assay type: in vivo, Swiss albino mice; conditions: for Number of movements (individual animals): raw data
Source text: The investigated compounds AZ-853 (8-(4-(4-(2-fluorophenyl)piperazin-1-yl)butyl)-1,3-dimethyl-1H-imidazo[2,1-f]purine-2,4(3H,8H)-dione and AZ-861 (1,3-dimethyl-8-(4-(4-(3-(trifluoromethyl)phenyl)piperazin-1-yl)butyl)-1H-imidazo[2,1-f]purine-2,4(3H,8H)-dione) were synthesised in the Department of Medicinal Chemistry, Faculty of Pharmacy, Jagiellonian University, and their synthesis was described earlier. AZ-853 and AZ-861 were suspended in 1% aqueous solution of Tween 80, and WAY-100635 (Sigma, Germany) was dissolved in 0.9% saline. In acute experiments, the selected compounds AZ-853 (0.156–2.5 mg/kg) and AZ-861 (0.625–2.5 mg/kg) were injected i.p. once 60 min before tests, whereas WAY-100635 (0.3 mg/kg) was administered subcutaneously (s.c.) 45 min before the test. […] In chronic experiments, AZ-853 and AZ-861 were administered i.p. once a day (between 9:00 AM and 10:00 AM) for 16 consecutive days at the minimum active doses selected from FST experiment, i.e. 0.625 and 1.25 mg/kg, respectively. […]. The control groups received 1% aqueous solution of Tween 80.
Locomotor activity was recorded with an Opto M3 multi-channel activity monitor (MultiDevice Software v.1.3, Columbus Instruments). The Swiss albino mice were individually placed in plastic cages (220 × 120 × 130 mm) for 30 min habituation period, and then the crossings of each channel (ambulation) were counted from […] to 6 min, that is the time equal to the observation period in FST. The cages were cleaned up with 70% ethanol after each mouse.
The Swiss albino mice were used in the experiment. AZ-853 and AZ-861 were injected once daily for 16 consecutive days. […]. FST, as described earlier, was performed on the 14th day just before the next treatment. To ensure that the effects observed in FST are not the result of increased motility of animals, on the 13th day, just before the next administration, the locomotor activity was measured as described earlier, from 2 to 6 min after test start, i.e. in the period identical to the duration of FST. Blood and organ collection was performed on the 17th day at 24 h after the last dose and fasting.

[4] = time 0 min (baseline), 10 mg/kg

- EC50 [1]: 6.61 nM
- Emax ([1]; CHO-K1, read-out: Emax (%) ± SEM, agonist mode): 60 ± 2%
- decreased efficacy as compared to 5-HT ([1]; p-ERK1/2): 1.6 fold
- increased potency as compared to 5-HT ([1]; p-ERK1/2): 1.5 fold
SMILES: Cn1c(=O)c2c(nc3n(CCCCN4CCN(c5ccccc5F)CC4)ccn23)n(C)c1=O [AZ-853, 8-(4-(4-(2-fluorophenyl)piperazin-1-yl)butyl)-1,3-dimethyl-1H-imidazo[2,1-f]purine-2,4(3H,8H)-dione]
- PDE4B inhibitory activity (PDE4B): did not induce PDE4B and PDE10A inhibitory activity
- mean reduction of blood pressure vs. methoxamine alone [2]: 95.5 mmHg
- effect on systolic blood pressure (normotensive rats; 10 mg/kg): did not significantly affect the systolic blood pressure
- reduction of diastolic blood pressure in relation to the baseline value (normotensive rats; 10 mg/kg): 13–15%
- DBP Mean (normotensive rats; 5 min): 88.3 mmHg
- SBP Mean (normotensive rats; 5 min): 131.2 mmHg
- DBP (individual animals) (normotensive rats; 5 min, 10 mg/kg): 85 mmHg and 88 mmHg and 83 mmHg and 95 mmHg and 91 mmHg
- SBP (individual animals) (normotensive rats; 5 min, 10 mg/kg): 143 mmHg and 116 mmHg and 120 mmHg and 123 mmHg and 163 mmHg and 122 mmHg
- DBP Mean (normotensive rats; 10 min): 84.8 mmHg
- SBP Mean (normotensive rats; 10 min): 130.0 mmHg
- DBP (individual animals) (normotensive rats; 10 min, 10 mg/kg): 82 mmHg and 81 mmHg and 85 mmHg and 91 mmHg and 84 mmHg and 86 mmHg
- SBP (individual animals) (normotensive rats; 10 min, 10 mg/kg): 144 mmHg and 112 mmHg and 127 mmHg and 119 mmHg and 162 mmHg and 116 mmHg
- DBP Mean (normotensive rats; 15 min): 83.2 mmHg
- SBP Mean (normotensive rats; 15 min): 128.5 mmHg
- DBP (individual animals) (normotensive rats; 15 min, 10 mg/kg): 80 mmHg and 81 mmHg and 84 mmHg and 88 mmHg and 82 mmHg
- SBP (individual animals) (normotensive rats; 15 min, 10 mg/kg): 140 mmHg and 113 mmHg and 130 mmHg and 116 mmHg and 160 mmHg and 112 mmHg
- DBP Mean (normotensive rats; 20 min): 83.0 mmHg
- SBP Mean (normotensive rats; 20 min): 125.5 mmHg
- DBP (individual animals) (normotensive rats; 20 min, 10 mg/kg): 75 mmHg and 76 mmHg and 85 mmHg and 88 mmHg and 86 mmHg
- SBP (individual animals) (normotensive rats; 20 min, 10 mg/kg): 132 mmHg and 110 mmHg and 128 mmHg and 113 mmHg and 161 mmHg
- DBP Mean (normotensive rats; 30 min): 83.2 mmHg
- SBP Mean (normotensive rats; 30 min): 122.8 mmHg
- DBP (individual animals) (normotensive rats; 30 min, 10 mg/kg): 80 mmHg and 76 mmHg and 84 mmHg and 87 mmHg and 86 mmHg and 85 mmHg
- SBP (individual animals) (normotensive rats; 30 min, 10 mg/kg): 136 mmHg and 109 mmHg and 126 mmHg and 110 mmHg and 160 mmHg and 112 mmHg
- DBP Mean (normotensive rats; 40 min): 82.5 mmHg
- SBP Mean (normotensive rats; 40 min): 126.2 mmHg
- DBP (individual animals) (normotensive rats; 40 min, 10 mg/kg): 80 mmHg and 76 mmHg and 86 mmHg and 88 mmHg and 83 mmHg
- SBP (individual animals) (normotensive rats; 40 min, 10 mg/kg): 138 mmHg and 110 mmHg and 125 mmHg and 111 mmHg and 159 mmHg
- DBP Mean (normotensive rats; 50 min): 83.2 mmHg
- SBP Mean (normotensive rats; 50 min): 125.7 mmHg
- DBP (individual animals) (normotensive rats; 50 min, 10 mg/kg): 83 mmHg and 82 mmHg and 84 mmHg and 86 mmHg and 97 mmHg and 85 mmHg
- SBP (individual animals) (normotensive rats; 50 min, 10 mg/kg): 139 mmHg and 113 mmHg and 119 mmHg and 167 mmHg and 111 mmHg
- DBP Mean (normotensive rats; 60 min): 86.2 mmHg
- SBP Mean (normotensive rats; 60 min): 127.0 mmHg
- DBP (individual animals) (normotensive rats; 60 min, 10 mg/kg): 84 mmHg and 80 mmHg and 83 mmHg and 86 mmHg and 82 mmHg
- SBP (individual animals) (normotensive rats; 60 min, 10 mg/kg): 136 mmHg and 111 mmHg and 116 mmHg and 110 mmHg and 157 mmHg and 107 mmHg
- DBP Mean (normotensive rats; 70 min): 84.7 mmHg
- SBP Mean (normotensive rats; 70 min): 125.3 mmHg
- DBP (individual animals) (normotensive rats; 70 min, 10 mg/kg): 84 mmHg and 85 mmHg and 89 mmHg and 82 mmHg
- SBP (individual animals) (normotensive rats; 70 min, 10 mg/kg): 138 mmHg and 116 mmHg and 120 mmHg and 111 mmHg and 160 mmHg and 107 mmHg
- DBP Mean (normotensive rats; 80 min): 83.2 mmHg
- SBP Mean (normotensive rats; 80 min): 123.2 mmHg
- DBP (individual animals) (normotensive rats; 80 min, 10 mg/kg): 85 mmHg and 80 mmHg and 82 mmHg and 89 mmHg and 81 mmHg
- SBP (individual animals) (normotensive rats; 80 min, 10 mg/kg): 137 mmHg and 112 mmHg and 115 mmHg and 108 mmHg and 160 mmHg and 107 mmHg
- DBP Mean (normotensive rats; time 0 min (baseline)): 97.2 mmHg
- SBP Mean (normotensive rats; time 0 min (baseline)): 131.0 mmHg
- DBP (individual animals) (normotensive rats; [4]): 97 mmHg and 98 mmHg and 91 mmHg and 84 mmHg and 100 mmHg and 113 mmHg
- SBP (individual animals) (normotensive rats; [4]): 129 mmHg and 140 mmHg and 120 mmHg and 119 mmHg and 122 mmHg and 156 mmHg
- Ki [3]: 508 nM
- effect on spontaneous locomotor activity, acute administration (mice; 4 min period identical to FST, AZ-853 0.625, 1.25, 2.5 mg/kg, AZ-861 1.25 mg/kg, WAY-100635 0.3 mg/kg alone or combined): did not change the behavior of the animals
- Number of movements (mean) (mice; acute, 0.625 mg/kg i.p., measured from 3 to 6 min): 127.8
- Number of movements (individual animals) (mice; acute, 0.625 mg/kg, 3 to 6 min): 130 and 222 and 166 and 48 and 117 and 84
- Number of movements (mean) (mice; acute, 1.25 mg/kg i.p., measured from 3 to 6 min): 149.8
- Number of movements (individual animals) (mice; acute, 1.25 mg/kg, 3 to 6 min): 200 and 171 and 90 and 115 and 119 and 204
- Number of movements (mean) (mice; acute, 2.5 mg/kg i.p., measured from 3 to 6 min): 156.8
- Number of movements (individual animals) (mice; acute, 2.5 mg/kg, 3 to 6 min): 116 and 258 and 120 and 200 and 205 and 42
- Number of movements (mean) (mice; repeated, 0.625 mg/kg, 24 h after 12th administration, during 4 min): 519.5
- Number of movements (individual animals) (mice; repeated, 0.625 mg/kg): 820 and 399 and 687 and 223 and 606 and 272 and 558 and 551 and 418 and 661
